Source: publication PMC4089486, “Structural and biochemical analyses of alanine racemase from the multidrug-resistant Clostridium difficile strain 630” (Acta Crystallographica Section D: Biological Crystallography, 2014)

Legend:
[1] = biological target: T1, CdAlr (C. difficile alanine racemase; CdAlrWT) (Clostridioides difficile, UniProt Q180W0); assay: X-ray crystal structure, […] A; type: binding; conditions: covalent; internal aldimine with Lys39
T1 construct: gene alr2; monomer 43306 Da, homodimer; WT preparation partly cleaved at position 271 (fragments 1-271 and 272-382)
T1 sequence (Q180W0 entry or part of it): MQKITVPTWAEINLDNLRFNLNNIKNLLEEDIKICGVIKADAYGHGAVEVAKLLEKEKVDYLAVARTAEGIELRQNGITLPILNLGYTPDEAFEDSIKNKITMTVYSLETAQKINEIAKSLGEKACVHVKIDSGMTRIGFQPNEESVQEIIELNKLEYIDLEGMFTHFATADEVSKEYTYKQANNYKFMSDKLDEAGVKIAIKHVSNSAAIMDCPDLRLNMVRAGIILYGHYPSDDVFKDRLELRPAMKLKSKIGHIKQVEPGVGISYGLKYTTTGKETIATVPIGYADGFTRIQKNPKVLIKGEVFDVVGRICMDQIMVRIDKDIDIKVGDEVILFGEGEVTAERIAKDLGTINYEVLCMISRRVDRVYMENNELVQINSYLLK

[2] = biological target: T1, CdAlr (C. difficile alanine racemase; CdAlrWT); assay: X-ray co-crystal structure, […] A; type: binding; conditions: covalent; adduct with PLP (DCS) in the active site; 100 mM cycloserine

| SMILES | X-ray crystal structure, 2.10 A [1] | X-ray co-crystal structure, 2.26 A [2] |
| --- | --- | --- |
| Cc1ncc(COP(=O)(O)O)c(C=O)c1O [PLP] | Two structures (CdAlrK271T and CdAlrPLP) contain the cofactor PLP |  |
| N[C@@H]1CONC1=O [cycloserine] |  | In the CdAlrcycloserine structure, cycloserine forms a covalent adduct with PLP |
